In ChEMBL document CHEMBL1155598, “Microcyclamide, a cytotoxic cyclic hexapeptide from the cyanobacterium Microcystis aeruginosa” (J Nat Prod, 2000) one finds IC50 data, which are given here for one compound.

The IC50 is the concentration that gives 50% inhibition. Lower therefore signals greater potency.

In the experiment the test system is P388. The experiment is described as follows: Cytotoxicity against mouse P388 cells after 3 days by MTT assay. The class given is functional, cell-based. The note with it: P388, 72 h. In general terms: Tetrazolium assays rely on reduction of a dye to a coloured formazan, in cell work by metabolically active cells.

In brackets after ≈: the same amount, converted by molar mass.

The compound `CC[C@H](C)[C@@H]1NC(=O)c2nc(oc2C)[C@H](C)NC(=O)c2csc(n2)[C@H](Cc2cncn2C)NC(=O)c2csc1n2` [MICROCYCLAMIDE] gave an IC50 of 1.2 µg/mL (≈ 2.06 µM).
